Source: patent US11470846B2, “Herbicidal pyridino-/pyrimidino-thiazoles” (SYNGENTA PARTICIPATIONS AG, priority 2014, dated 2022)

What was measured:
Format in all cases: in vivo
[1] = system: Alopecurus myosuroides (ALOMY); test: Pre-emergence herbicidal activity; conditions: pre-emergence application, 1000 g/Ha, evaluated after 13 days, scale 0-5
Procedure: (§1) B1 Pre-Emergence Herbicidal Activity
(§2) Seeds of a variety of test species were sown in standard soil in pots: Triticum aestivium (TRZAW), Oryza sativa (ORYSA), Avena fatua (AVEFA), Alopecurus myosuroides (ALOMY), Echinochloa crus-galli (ECHCG), Lolium perenne (LOLPE), Zea Mays (ZEAMX), Abutilon theophrasti (ABUTH), Amaranthus retroflexus (AMARE) and Setaria faberi (SETFA). After cultivation for one day (pre-emergence) under controlled conditions in a glasshouse (at 24/16° C., day/night; 14 hours light; 65% humidity), the plants were sprayed with an aqueous spray solution derived from the formulation of the technical active ingredient in acetone/water (50:50) solution containing 0.5% Tween 20 (polyoxyethelyene sorbitan monolaurate, CAS RN 9005-64-5). The test plants were then grown in a glasshouse under controlled conditions (at 24/16° C., day/night; 14 hours light; 65% humidity) and watered twice daily. After 13 days, the test was evaluated (5=total damage to plant; 0=no damage to plant).

[2] = system: Avena fatua (AVEFA); test: Pre-emergence herbicidal activity; conditions: pre-emergence application, 1000 g/Ha, evaluated after 13 days, scale 0-5
Procedure: as §1, §2

[3] = system: Echinochloa crus-galli (ECHCG); test: Pre-emergence herbicidal activity; conditions: pre-emergence application, 1000 g/Ha, evaluated after 13 days, scale 0-5; Table 5
Procedure: as §1, §2

[4] = system: Lolium perenne (LOLPE); test: Pre-emergence herbicidal activity; conditions: pre-emergence application, 1000 g/Ha, evaluated after 13 days, scale 0-5; Table 5
Procedure: as §1, §2

[5] = system: Oryza sativa (ORYSA); test: Pre-emergence herbicidal activity; conditions: pre-emergence application, 1000 g/Ha, evaluated after 13 days, scale 0-5
Procedure: as §1, §2

[6] = system: Triticum aestivium (TRZAW); test: Pre-emergence herbicidal activity; conditions: pre-emergence application, 1000 g/Ha, evaluated after 13 days, scale 0-5
Procedure: as §1, §2

[7] = system: Alopecurus myosuroides (ALOMY); test: Post-emergence herbicidal activity; conditions: post-emergence application, 1000 g/Ha, evaluated after 13 days, scale 0-5
Procedure: (§3) B2 Post-Emergence Herbicidal Activity
(§4) Seeds of a variety of test species were sown in standard soil in pots: Triticum aestivium (TRZAW), Oryza sativa (ORYSA), Avena fatua (AVEFA), Alopecurus myosuroides (ALOMY), Echinochloa crus-galli (ECHCG), Lolium perenne (LOLPE), Zea Mays (ZEAMX), Abutilon theophrasti (ABUTH), Amaranthus retroflexus (AMARE) and Setaria faberi (SETFA). After 8 days cultivation (post-emergence) under controlled conditions in a glasshouse (at 24/16° C., day/night; 14 hours light; 65% humidity), the plants were sprayed with an aqueous spray solution derived from the formulation of the technical active ingredient in acetone/water (50:50) solution containing 0.5% Tween 20 (polyoxyethelyene sorbitan monolaurate, CAS RN 9005-64-5). The test plants were then grown in a glasshouse under controlled conditions (at 24/16° C., day/night; 14 hours light; 65% humidity) and watered twice daily. After 13 days, the test was evaluated (5=total damage to plant; 0=no damage to plant).

[8] = system: Avena fatua (AVEFA); test: Post-emergence herbicidal activity; conditions: post-emergence application, 1000 g/Ha, evaluated after 13 days, scale 0-5
Procedure: as §3, §4

[9] = system: Echinochloa crus-galli (ECHCG); test: Post-emergence herbicidal activity; conditions: post-emergence application, 1000 g/Ha, evaluated after 13 days, scale 0-5; Table 7
Procedure: as §3, §4

[10] = system: Lolium perenne (LOLPE); test: Post-emergence herbicidal activity; conditions: post-emergence application, 1000 g/Ha, evaluated after 13 days, scale 0-5; Table 7
Procedure: as §3, §4

[11] = system: Oryza sativa (ORYSA); test: Post-emergence herbicidal activity; conditions: post-emergence application, 1000 g/Ha, evaluated after 13 days, scale 0-5
Procedure: as §3, §4

[12] = system: Triticum aestivium (TRZAW); test: Post-emergence herbicidal activity; conditions: post-emergence application, 1000 g/Ha, evaluated after 13 days, scale 0-5
Procedure: as §3, §4

SMILES	Control of weed species, ALOMY (damage score) [1]	Control of weed species, AVEFA (damage score) [2]	Control of weed species, ECHCG (damage score) [3]	Control of weed species, LOLPE (damage score) [4]	Control of weed species, ORYSA (damage score) [5]	Control of weed species, TRZAW (damage score) [6]	Control of weed species, ALOMY (damage score) [7]	Control of weed species, AVEFA (damage score) [8]	Control of weed species, ECHCG (damage score) [9]	Control of weed species, LOLPE (damage score) [10]	Control of weed species, ORYSA (damage score) [11]	Control of weed species, TRZAW (damage score) [12]
Cc1nc(-c2cccnc2)sc1N(C)C(=O)OC(C)C [Compound A20]	0	2	5	2	0	0	1	3	5	3	0	1
Cc1nc(-c2cccnc2)sc1N(C)C(=O)NOC(C)(C)C [Compound A45, 3-tert-butoxy-1-methyl-1-(4-methyl-2-(3-pyridyl)thiazol-5-yl)urea]	2	3	3	2	2	1	1	5	4	4	2	2
CCN(C(=O)OC(C)(C)C)c1sc(-c2cccnc2)nc1C [Compound A17]	0	0	0	0	0	0	1	4	1	2	2	1
COC(=O)N(C)c1sc(-c2cccnc2)nc1C [Compound A18]	1	2	5	2	0	1	1	3	5	2	0	1
Cc1nc(-c2cncnc2)sc1N(C)C(=O)OC(C)(C)C [Compound A2, tert-butyl N-methyl-N-(4-methyl-2-pyrimidin-5-yl-thiazol-5-yl)carbamate]	0	3	5	2	1	0	1	5	5	3	1	1
Cc1nc(-c2cncc(N(C)C)c2)sc1N(C)C(=O)OC(C)(C)C [Compound A13]	0	0	1	0	1	0	1	0	2	0	1	2
Cc1nc(-c2cccnc2)sc1N(C)C(=O)SC(C)(C)C [Compound A22, S-tert-butyl N-methyl-N-[4-methyl-2-(3-pyridyl)thiazol-5-yl]carbamothioate]	0	0	0	0	0	0	0	2	2	2	0	0
CCOC(=O)N(C)c1sc(-c2cccnc2)nc1C [Compound A19, ethyl N-methyl-N-[4-methyl-2-(3-pyridyl)thiazol-5-yl]carbamate]	1	1	5	1	0	0	1	3	5	2	0	1
CN(C(=O)OC(C)(C)C)c1sc(-c2cncc(F)c2)nc1C(F)(F)F [Compound A24]	2	4	4	3	0	1	0	4	5	4	2	1
Cc1nc(-c2cncc(O)c2)sc1N(C)C(=O)OC(C)(C)C [Compound A15]	0	0	0	0	0	0	0	2	1	1	0	1
COc1cncc(-c2nc(C)c(N(C)C(=O)OC(C)(C)C)s2)c1 [Compound A6]	1	0	2	1	1	0	1	2	4	2	0	1
